These results are taken from patent US20190076436A1, “MACROCYCLIC COMPOUNDS AS ROS1 KINASE INHIBITORS” (Array BioPharma Inc., priority 2017, published 2019).

Holding throughout (assay type): biochemical
One assay concerns the target D2033N ROS1 (Homo sapiens, UniProt P08922, D2033N). Briefly: Inhibition of D2033N ROS1 kinase, CisBio HTRF KinEASE-TK assay. The procedure: (§1) The potency of a compound inhibiting wild type and exemplary mutant ROS1 kinases was determined using CisBio's HTRF Kinease-TK assay technology. […] No. […] No. […] Each kinase is incubated with 250 nM TK-substrate biotin (CisBio, Cat. No. 62TKOPEC) and 1 mM ATP along with test compound in a buffer consisting of 25 mM MOPS [pH 7.4], 5 mM MgCl2, 0.005% Triton X-100, and 2% DMSO in a volume of 8 μL. […] After a 1 hour incubation at 22° C., the extent of reaction was determined using a PerkinElmer EnVision multimode plate reader via HTRF dual wavelength detection, and the percent of control (POC) was calculated using a ratiometric emission factor. 100 POC is determined using no test compound and 0 POC is determined in the absence of enzyme.

Another assay concerns the target G2032R ROS1 (Homo sapiens, UniProt P08922, G2032R). Briefly: Inhibition of G2032R ROS1 kinase, CisBio HTRF KinEASE-TK assay. The procedure: as §1
In another assay the target is wild type ROS1 (Homo sapiens, UniProt P08922). Briefly: Inhibition of wild type ROS1 kinase, CisBio HTRF KinEASE-TK assay. The conditions noted are these: read-out: ROS1 wT IC50. The procedure: as §1
Chain of wild type ROS1 (P08922 1883-2347 limits assumed): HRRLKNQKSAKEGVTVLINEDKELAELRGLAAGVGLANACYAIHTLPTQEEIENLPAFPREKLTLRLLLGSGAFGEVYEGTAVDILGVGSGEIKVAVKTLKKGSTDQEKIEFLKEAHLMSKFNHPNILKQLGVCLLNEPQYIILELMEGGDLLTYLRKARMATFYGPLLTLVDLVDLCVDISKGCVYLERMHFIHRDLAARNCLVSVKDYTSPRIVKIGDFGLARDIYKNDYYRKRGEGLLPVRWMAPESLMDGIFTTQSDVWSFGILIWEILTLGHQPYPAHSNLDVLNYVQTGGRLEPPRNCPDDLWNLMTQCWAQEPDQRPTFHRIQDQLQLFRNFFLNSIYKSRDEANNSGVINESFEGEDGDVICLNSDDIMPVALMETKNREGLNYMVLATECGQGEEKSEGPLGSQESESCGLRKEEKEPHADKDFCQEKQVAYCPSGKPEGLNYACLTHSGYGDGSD
In another assay the target is L2026M ROS1 (Homo sapiens, UniProt P08922, L2026M). Nature of the assay: Inhibition of L2026M ROS1 kinase, CisBio HTRF KinEASE-TK assay. The procedure:
as §1

Chain of G2032R ROS1 (P08922 1883-2347 G2032R limits assumed): as the sequence (P08922 1883-2347 limits assumed) above, with G150R counted along it
Chain of L2026M ROS1 (P08922 28-2347 L2026M): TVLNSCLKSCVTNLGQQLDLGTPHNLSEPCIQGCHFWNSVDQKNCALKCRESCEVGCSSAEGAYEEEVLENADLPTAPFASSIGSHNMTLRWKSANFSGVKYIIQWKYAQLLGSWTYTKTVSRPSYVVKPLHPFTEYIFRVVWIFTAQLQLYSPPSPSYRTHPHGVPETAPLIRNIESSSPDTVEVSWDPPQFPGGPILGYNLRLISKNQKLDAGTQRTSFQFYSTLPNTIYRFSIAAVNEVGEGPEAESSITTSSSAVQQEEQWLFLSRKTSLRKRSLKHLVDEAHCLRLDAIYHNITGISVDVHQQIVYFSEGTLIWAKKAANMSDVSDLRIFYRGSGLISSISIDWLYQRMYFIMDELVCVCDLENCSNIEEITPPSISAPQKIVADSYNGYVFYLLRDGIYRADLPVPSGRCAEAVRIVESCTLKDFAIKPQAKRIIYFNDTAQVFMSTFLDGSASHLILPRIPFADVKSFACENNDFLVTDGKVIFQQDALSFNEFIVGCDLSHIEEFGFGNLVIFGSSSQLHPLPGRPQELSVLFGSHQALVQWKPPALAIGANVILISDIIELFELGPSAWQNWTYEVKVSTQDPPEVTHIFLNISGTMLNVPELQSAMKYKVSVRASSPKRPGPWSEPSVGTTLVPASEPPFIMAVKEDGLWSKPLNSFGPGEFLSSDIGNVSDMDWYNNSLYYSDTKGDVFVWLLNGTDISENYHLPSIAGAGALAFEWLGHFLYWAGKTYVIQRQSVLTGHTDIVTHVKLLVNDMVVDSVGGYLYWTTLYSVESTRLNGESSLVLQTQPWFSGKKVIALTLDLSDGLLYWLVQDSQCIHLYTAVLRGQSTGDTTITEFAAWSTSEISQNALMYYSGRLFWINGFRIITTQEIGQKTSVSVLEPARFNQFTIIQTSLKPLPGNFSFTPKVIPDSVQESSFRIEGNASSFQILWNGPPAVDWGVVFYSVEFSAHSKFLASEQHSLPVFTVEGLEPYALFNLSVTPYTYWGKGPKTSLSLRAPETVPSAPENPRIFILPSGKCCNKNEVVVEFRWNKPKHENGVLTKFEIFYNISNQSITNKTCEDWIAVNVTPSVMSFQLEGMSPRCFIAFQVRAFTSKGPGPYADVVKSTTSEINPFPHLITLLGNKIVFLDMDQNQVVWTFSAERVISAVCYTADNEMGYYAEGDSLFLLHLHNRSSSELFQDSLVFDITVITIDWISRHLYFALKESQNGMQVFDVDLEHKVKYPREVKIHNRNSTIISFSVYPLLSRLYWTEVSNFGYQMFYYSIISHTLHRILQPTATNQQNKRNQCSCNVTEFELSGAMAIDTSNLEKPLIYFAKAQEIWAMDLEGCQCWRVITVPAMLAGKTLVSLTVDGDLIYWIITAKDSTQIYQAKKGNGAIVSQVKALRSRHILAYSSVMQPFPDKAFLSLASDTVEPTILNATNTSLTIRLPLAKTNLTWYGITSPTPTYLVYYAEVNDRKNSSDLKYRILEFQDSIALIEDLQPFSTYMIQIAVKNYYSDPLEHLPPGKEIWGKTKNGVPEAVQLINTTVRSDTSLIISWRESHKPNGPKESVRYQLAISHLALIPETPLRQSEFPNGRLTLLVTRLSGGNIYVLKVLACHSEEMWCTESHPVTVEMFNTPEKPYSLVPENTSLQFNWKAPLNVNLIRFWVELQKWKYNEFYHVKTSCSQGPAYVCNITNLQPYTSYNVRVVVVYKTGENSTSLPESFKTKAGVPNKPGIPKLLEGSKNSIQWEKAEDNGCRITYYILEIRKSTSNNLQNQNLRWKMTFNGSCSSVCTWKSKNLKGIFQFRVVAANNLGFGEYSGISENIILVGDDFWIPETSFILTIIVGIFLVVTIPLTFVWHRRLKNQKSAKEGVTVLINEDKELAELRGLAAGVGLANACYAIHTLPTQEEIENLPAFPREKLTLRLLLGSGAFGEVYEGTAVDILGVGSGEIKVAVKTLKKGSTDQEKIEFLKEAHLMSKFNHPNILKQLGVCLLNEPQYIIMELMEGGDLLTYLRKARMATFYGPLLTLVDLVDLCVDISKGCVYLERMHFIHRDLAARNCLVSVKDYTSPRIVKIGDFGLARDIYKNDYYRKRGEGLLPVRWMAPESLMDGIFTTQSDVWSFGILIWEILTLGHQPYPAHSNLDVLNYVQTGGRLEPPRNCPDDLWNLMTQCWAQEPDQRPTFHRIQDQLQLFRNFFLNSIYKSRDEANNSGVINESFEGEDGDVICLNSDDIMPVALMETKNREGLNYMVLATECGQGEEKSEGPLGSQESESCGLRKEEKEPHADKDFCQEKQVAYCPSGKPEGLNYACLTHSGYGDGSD
Chain of D2033N ROS1 (P08922 28-2347 D2033N): as the sequence (P08922 28-2347 L2026M) above, with M1999L, D2006N counted along it

In the case of `O=C1NC[C@H](O)COc2ccc(F)cc2C2CC(F)(F)CN2c2ccn3ncc1c3n2` (single isomer, unassigned) [Compound 45], the IC50 stood at 16.8 nM on D2033N ROS1, 114 nM on G2032R ROS1, 6.1 nM on wild type ROS1 and 4.6 nM on L2026M ROS1.
Turning to `O=C1NCCCOc2cccc(n2)[C@H]2CCCN2c2ccn3ncc1c3n2` [Compound 2, (6R)-12-oxa-2,16,20,21,24,26-hexaazapentacyclo[16.5.2.1^7,11.0^2,6.0^21,25] hexacosa-1(24),7(26),8,10,18(25),19,22-heptaen-17-one], the IC50 against D2033N ROS1 worked out at 11.9 nM; against G2032R ROS1 it was 1060 nM; at wild type ROS1 it was 80.3 nM; on L2026M ROS1, 67 nM.
As to `C[C@H]1CNC(=O)c2cnn3ccc(nc23)N2CCC[C@@H]2c2cc(F)cn(c2=O)C1` [Compound 35, (6R,13S)-9-fluoro-13-methyl-2,11,15,19,20,23-hexaazapentacyclo [15.5.2.1^7,11.0^2,6.0^20,24]pentacosa-1(23),7,9,17(24),18,21-hexaene-16,25-dione], the IC50 turned out to be 260 nM at D2033N ROS1, 4930 nM against G2032R ROS1, 779 nM on wild type ROS1 and 589 nM on L2026M ROS1.
For the molecule `O=C1NCCCOc2ccc(F)cc2[C@H]2CCCN2c2ccn3ncc1c3n2` [Compound 20, (6R)-9-fluoro-13-oxa-2,17,21,22,25-pentaazapentacyclo[17.5.2.0^2,6.0^7,12.0^22,26] hexacosa-1(25),7,9,11,19(26),20,23-heptaen-18-one], the IC50 at D2033N ROS1 is 2.8 nM; against G2032R ROS1, 21.6 nM; at wild type ROS1, 2.5 nM; against L2026M ROS1, 2.2 nM.
With `O=C1NC[C@@H](O)COc2ncc(F)cc2[C@H]2CCCN2c2ccn3ncc1c3n2` [Compound 7, (6R,15R)-9-fluoro-15-hydroxy-13-oxa-2,11,17,21,22,25-hexaazapentacyclo-[17.5.2.0^2,6.0^7,12.0^22,26]hexacosa-1(25),7,9,11,19(26),20,23-heptaen-18-one], the IC50 amounted to 0.6 nM against D2033N ROS1, 29.2 nM against G2032R ROS1, 3.1 nM at wild type ROS1 and 2.9 nM against L2026M ROS1.
As for `O=C1OCCOc2ncc(F)cc2[C@H]2CCCN2c2ccn3ncc1c3n2` [Compound 14], the 50% inhibitory concentration (IC50) at D2033N ROS1 was 7.6 nM; on G2032R ROS1, 107 nM; at wild type ROS1, 28.9 nM; against L2026M ROS1 it was 30.3 nM.
For `O=C1NCC(F)(F)COc2ncc(F)cc2[C@H]2CCCN2c2ccn3ncc1c3n2` [Compound 19, (6R)-9,15,15-trifluoro-13-oxa-2,11,17,21,22,25-hexaazapentacyclo[17.5.2.0^2,6.0^7,12.0^22,26] hexacosa-1(25),7,9,11,19(26),20,23-heptaen-18-one], in that order: 1.2 nM, 14.4 nM, 2.4 nM and 2.4 nM.
With `O=C1NCCOc2ncc(F)cc2[C@H]2CCCN2c2ccn3ncc1c3n2` [Compound 9, (6R)-9-fluoro-13-oxa-2,11,16,20,21,24-hexaazapentacyclo[16.5.2.0^2,6.0^7,12.0^21,25] pentacosa-1(24),7,9,11,18(25),19,22-heptaen-17-one], the concentration for half-maximal inhibition (IC50) at D2033N ROS1 worked out at 1.7 nM; on G2032R ROS1 it was 98.6 nM; at wild type ROS1, 9.2 nM; at L2026M ROS1, 10.2 nM.
With `CC(=O)N1CCOc2ccc(F)cc2[C@H]2CCCN2c2ccn3ncc(c3n2)C1` [Compound 22, 1-[(6R)-9-fluoro-13-oxa-2,16,20,21,24-pentaazapentacyclo[16.5.2.0^2,6.0^7,12.0^21,25]pentacosa-1(24),7,9,11,18(25),19,22-heptaen-16-yl]ethan-1-one], the IC50 turned out to be 397 nM against D2033N ROS1, 3980 nM on G2032R ROS1, 331 nM on wild type ROS1 and 713 nM at L2026M ROS1.
The matching figures for `O=C1NCCCOc2ncc(F)cc2[C@H]2CCCN2c2ccn3ncc1c3n2` [Compound 3, (6R)-9-fluoro-13-oxa-2,11,17,21,22,25-hexaazapentacyclo[17.5.2.0^2,6.0^7,12.0^22,26] hexacosa-1(25),7,9,11,19(26),20,23-heptaen-18-one]: 0.3 nM, 9.4 nM, 1.2 nM and 1.2 nM.
